Common to all, as to assay type: cell-based
Experiment [1] has as its system MV4-11 cells. Description: MV4-11 cellular proliferative assay, Assay Format B (CTG 2.0, 168 h). As to conditions: Homo sapiens. Put shortly: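 MV4-11 cells seeded overnight in IMDM + 10% FBS, then exposed to 10-point, 3-fold dilutions from 1 uM or 100 nM top concentration (0.3% DMSO final) for 168 h at 37 °C. CTG 2.0 luminescence read; % viability vs DMSO control fitted by four-parameter logistic regression.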

Experiment [2] addresses T1, MLLT1 (Homo sapiens, UniProt Q03111).
T1 construct: host or cells: MV4-11
T1 sequence (Q03111 1-559): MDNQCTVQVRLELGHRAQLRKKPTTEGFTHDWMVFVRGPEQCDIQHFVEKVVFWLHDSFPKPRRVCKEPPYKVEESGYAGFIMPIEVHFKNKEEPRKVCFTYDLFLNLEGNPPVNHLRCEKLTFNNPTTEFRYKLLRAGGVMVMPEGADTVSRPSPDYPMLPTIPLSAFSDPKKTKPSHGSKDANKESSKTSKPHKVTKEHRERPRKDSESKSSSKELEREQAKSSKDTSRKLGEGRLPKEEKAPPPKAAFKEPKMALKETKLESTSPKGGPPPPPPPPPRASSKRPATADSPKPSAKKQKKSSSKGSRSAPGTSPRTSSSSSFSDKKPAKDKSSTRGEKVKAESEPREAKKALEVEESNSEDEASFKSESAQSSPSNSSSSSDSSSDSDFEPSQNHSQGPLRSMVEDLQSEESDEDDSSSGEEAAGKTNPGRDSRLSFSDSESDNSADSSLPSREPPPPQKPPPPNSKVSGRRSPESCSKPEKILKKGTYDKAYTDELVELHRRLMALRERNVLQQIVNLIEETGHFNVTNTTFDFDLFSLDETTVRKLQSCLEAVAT
Nature of the experiment: MLLT1 DC50 and Dmax determination in MV4-11 cells (JESS), dose response, 4 h. As to conditions: MLLT1 degradation; for Dmax: maximum % degradation observed. As for the experimental part:
MLLT1 degradation efficacy of compounds was tested in an automated chemiluminescent detection system (JESS, Cat #004-650). MV4-11 (#CRL-9591, ATCC) were seeded at a density of 1.2 million cells/well in a non-treated 6-well cell culture plate in 2.4 mL of complete medium (IMDM+10% FBS+1X Penicillin-Streptomycin). 10 mM DMSO stocks were prepared, and cells were treated with eight concentrations of test compounds, starting from 100 nM, 5-fold dilution, at a final DMSO concentration of 0.1% and incubated for 4 h at 37° C., 5% CO2. Post incubation, cells were centrifuged, washed with HBSS and lysed in 60 μL of RIPA buffer supplemented with Protease inhibitors (sc-24948; Santa Cruz). Protein estimation was done using BCA protein assay kit (23228; Pierce). 4 μg protein lysate (4 μL of 1 μg/μL lysate) was loaded into each well of the JESS cartridge (SM-W004; Bio-techne) and the JESS run was performed using 1:900 dilution of anti-human MLLT1 antibody (ABE2596; Merck) and 1:1200 dilution of anti-human GAPDH antibody (2118; Cell signaling technology) with anti-rabbit secondary detection module (DM-001; Bio-Techne). Post run, data was analysed using “Compass for SW” software for chemiluminescent detection. Peak fit was done using “dropped lines” method. Peak area for MLLT1 and GAPDH was used for the calculation of MLLT1 degradation with respect to DMSO control. Data was shown as “% degradation”. % Degradation was plotted against the respective doses (test compound concentration) and dose-response curve (DRC) was generated using four-parameter logistic equation (non-linear regression). Following parameters for each DRC was captured: DC50 (concentration in nM at which degradation is 50%, interpolated from standard curve and transformed to linear scale), Dmax (maximum % degradation observed). DC50 and Dmax data are captured in Table 9 for Example 8 and Example 234, which is a comparative example.

The target in experiment [3] is T1, MLLT1. Nature of the experiment: MLLT1 degradation assay in MV4-11 cells (JESS chemiluminescent detection), three concentrations, 24 h. The settings on record: with respect to DMSO control. Put shortly: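 MV4-11 cells treated 24 h at 37° C, 5% CO2 with 1000, 100 and 10 nM compound (0.1% DMSO final). MLLT1 quantified by automated capillary chemiluminescent immunodetection; band peak area expressed as % degradation relative to DMSO control.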

For experiment [4], the system named is MV4-11 cells. Nature of the experiment: MV4-11 cellular proliferative assay, Assay Format A (CellTiter-Glo, 120 hours). The settings on record: Homo sapiens. Put shortly: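 Over 120 h, MV4-11 cells seeded at 50 cells/well in IMDM/10% FBS were exposed to compound (10 semi-log dilutions, 30 μM top). Viability was read by CellTiter-Glo luminescence. Signals were normalised to DMSO and reference-compound wells, and AC50 came from a Hill fit.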
In general terms: In ATP-based viability assays light output follows the ATP content of the culture.

The mark [5] stands for this setting: Assay Method B, read-out: MV4-11 Antiproliferation IC50.

Molecules are shown by their SMILES.

The term DC50 denotes the midpoint of the concentration-degradation curve. The Dmax is the greatest extent of degradation seen. A higher Dmax goes with a fuller loss of target. In the case of `O=C1CCC(N2Cc3c(C#CCCCCc4ccc(C(=O)Nc5cc6[nH]c(CN7CCCC7)cc6cn5)cc4)cccc3C2=O)C(=O)N1` (centres unmarked) [Example 234, 4-(6-(2-(2,6-dioxopiperidin-3-yl)-1-oxoisoindolin-4-yl)hex-5-yn-1-yl)-N-(2-(pyrrolidin-1-ylmethyl)-1H-pyrrolo[3,2-c]pyridin-6-yl)benzamide], the IC50 in the experiment on MV4-11 cells [1] (setting [5]) is greater than 1000 nM. At MLLT1 [2], this molecule had a DC50 of 6.4 nM and a Dmax of 60%.

`CN1CCC[C@@H]1c1cc2cnc(NC(=O)c3ccc(CCCCC#Cc4cccc5c4CN(C4CCC(=O)NC4=O)C5=O)cc3)cc2[nH]1` (mixture of isomers) [Example 8, 4-(6-(2-(2,6-dioxopiperidin-3-yl)-1-oxoisoindolin-4-yl)hex-5-yn-1-yl)-N-(2-((R)-1-methylpyrrolidin-2-yl)-1H-pyrrolo[3,2-c]pyridin-6-yl)benzamide]: at MLLT1 [3], the “MLLT1% Degradation @ 0.01 μM” value is on record as “A (Category A: A ≥ 75% degradation)”, the “MLLT1% Degradation @ 0.1 μM” value is recorded as “A (Category A: A ≥ 75% degradation)” and the “MLLT1% Degradation @ 1 μM” value is “A (Category A: A ≥ 75% degradation)”. For the same molecule, the IC50 with MV4-11 cells [1] (168 h (7 days), CTG 2.0, read-out: IC50 (MV4-11 cellular proliferative assay, Assay format B)) is no more than 100 nM. For the same molecule, in the experiment with MV4-11 cells [1] (setting [5]), the IC50 was 1.5 nM. Moreover, at MLLT1 [2], it took 0.4 nM to reach half-maximal degradation (DC50) and the Dmax turned out to be 87%.

With `CN1CCC[C@@H]1c1cc2cnc(NC(=O)c3ccc(-c4cnn(CCCC#Cc5cccc6c5CN(C5CCC(=O)NC5=O)C6=O)c4)cc3)cc2[nH]1` (stereo partly drawn) [Example 21, 4-(1-(5-(2-(2,6-dioxopiperidin-3-yl)-1-oxoisoindolin-4-yl)pent-4-yn-1-yl)-1H-pyrazol-4-yl)-N-(2-((R)-1-methylpyrrolidin-2-yl)-1H-pyrrolo[3,2-c]pyridin-6-yl)benzamide], at MLLT1 [3], the “MLLT1% Degradation @ 0.01 μM” value is “A (Category A: A ≥ 75% degradation)”, the “MLLT1% Degradation @ 0.1 μM” value is “A (Category A: A ≥ 75% degradation)” and the “MLLT1% Degradation @ 1 μM” value is “B (Category B: 50% ≤ B < 75% degradation)”. The molecule also came in with an IC50 in the experiment on MV4-11 cells [4] of no more than 100 nM.

The values are drawn from US20260191968A1, “PROTAC DEGRADERS OF MLLT1 AND/OR MLLT3” (DARK BLUE THERAPEUTICS LTD, priority 2024, published 2026).
